Read-outs that look alike come from different tables or passages of the source.
How the values were obtained:
MDA-MB-436 cells = assay: Synergy between Nampt inhibitors and the PARP inhibitor olaparib in BRCA1-deficient cells; assay type: cell-based; details: loss of BRCA1 function
Method: Experiments were conducted in HCT116 cells.
This was not fully unexpected, as PARP inhibitors are relatively benign to cells (like HCT116 cells) that have a functional homologous recombination (HR) system to repair double stranded DNA damage (Ashworth A. Journal of Clinical Oncology 26(22):3785-90 (2008)). In fact, the model (FIG. 1A) predicts that inhibiting an enzyme, such as PARP, that consumes NAD^+ would protect HR-proficient cells from Nampt inhibition. However, in cells that have lost the function of BRCA tumor suppressors, HR function is compromised, and these cells are killed by PARP inhibitors (Ashworth A. (2008) Journal of Clinical Oncology 26(22):3785-90). Thus, it was hypothesized that PARP inhibitors, while being antagonistic with Nampt inhibitors in most cells, would be synergistic in cells with BRCA mutations that render the cells HR-deficient (FIG. 1B). Indeed, in MDA-MB-436 cells, which have a loss of BRCA1 function, Nampt inhibitors (a known Nampt inhibitor, Exemplary Compound A and Exemplary Compound I, both Exemplary Compounds identified hereinafter) and the PARP inhibitor olaparib synergized in causing cell death. […] Of further significance to these findings, it is becoming clear that other routes of HR deficiency in oncogenesis (other than BRCA sequence mutation) could also lead to sensitivity to PARP inhibition plus Nampt inhibitor combination therapy. […]

[1] = tested on: Cancer cell lines (SCLC, glioma, colon cancer and others)
Method: Experiments were conducted in HCT116 cells. […] For compound combination analyses, the MacSynergy™ II protocol and program were utilized, following the recommendations of the developers (Prichard and Shipman, 1990). Prior to combinations of compounds, dose curves of cells treated with a single compound were generated to define relevant compound doses to use in the combination analysis. Typically, relevant doses were those found in the inflection portion of a sigmoidal dose-response curve. Utilizing these optimized conditions, cells were dosed with Nampt inhibitor plus the test compound at a variety of concentrations of each, and viability was assessed using CellTiter-Glo. Data was processed using the MacSynergy™ II algorithm, which subtracted from actual data a prediction of compound additivity. Thresholds for meaningful synergy were defined based upon the recommendations of the developers (Prichard and Shipman, 1990).
Cancer cell lines used in these studies represented cancer types found to be sensitive to Nampt inhibition [e.g. non-Hodgkins lymphoma, multiple myeloma, glioma, non-small cell lung carcinoma (NSCLC), small cell lung carcinoma (SCLC), ovarian cancer and colorectal cancer].

cancer cell lines = assay: Cytotoxicity in a wide variety of cancer cell types (TC50, CellTiter-Glo, 72 or 96 hours); details: read-out: TC50
Method: Exponentially growing cells were plated in fresh growth media in a 96-well black, flat, clear-bottomed polystyrene microtiter plate (Packard View Plate 6005182). Twenty-four hours later, compounds were added from serial dilutions prepared in DMSO from 50 mM DMSO stock solutions. Each concentration of inhibitor was tested in duplicate at a final DMSO concentration of 0.4%. After 72 or 96 hours incubation, cell viability was quantified by measuring intracellular ATP levels using CellTiter-Glo (Promega). Luminescence data was collected on a TopCount NXT plate reader (PerkinElmer). Experimental values were normalized to solvent controls and plotted versus compound concentration to determine the concentration required for a 50% reduction in cell viability.

For O=C(NCc1cccnc1)Nc1ccc(COc2ccccc2-c2ccccc2)cc1 [Exemplary Compound A], the “drug interaction with the PARP inhibitor olaparib in causing cell death” value (MDA-MB-436 cells) was “synergized”, the “cytotoxicity in combination with 4HC” value [1] was “Synergistic cytotoxicity” and the “cytotoxicity in combination with 5-FU” value [1] was “Synergistic cytotoxicity”. For the same compound, the “cytotoxicity in combination with temozolomide” value [1] was “Synergistic cytotoxicity”, the CC50 (cancer cell lines; A172 cells, glioma, 3 DAY) was 1.1 nM and the CC50 (cancer cell lines; COLO205 cells, colon, 3 DAY) was 0.5 nM. The CC50 (cancer cell lines; COLO205 cells, colon, 7 DAY) was 0.3 nM, the CC50 (cancer cell lines; DB cells, lymphoma, 3 DAY) was 3.5 nM and the CC50 (cancer cell lines; DMS-114 cells, SCLC, 3 DAY) was 0.16 nM. It also gave a CC50 (cancer cell lines; DU145 cells, prostate, 3 DAY) of 3.9 nM, a CC50 (cancer cell lines; DU145 cells, prostate, 7 DAY) of 2.7 nM and a CC50 (cancer cell lines; DU4475 cells, breast, 3 DAY) of 0.1 nM. For the same compound, the CC50 (cancer cell lines; DU4475 cells, breast, 7 DAY) was 0.1 nM, the CC50 (cancer cell lines; HCC827 cells, NSCLC, 3 DAY) was 8 nM and the CC50 (cancer cell lines; HCC827 cells, NSCLC, 7 DAY) was 1.5 nM. For the same compound, the CC50 (cancer cell lines; HCT116 cells, colon, 3 DAY) was 0.6 nM, the CC50 (cancer cell lines; HCT116 cells, colon, 7 DAY) was 0.4 nM and the CC50 (cancer cell lines; HCT-15 cells, colon, 3 DAY) was 0.7 nM. It also gave a CC50 (cancer cell lines; HCT-15 cells, colon, 7 DAY) of 1 nM, a CC50 (cancer cell lines; HOP92 cells, NSCLC, 3 DAY) of 17 nM and a CC50 (cancer cell lines; HOP92 cells, NSCLC, 7 DAY) of 4.3 nM. For the same compound, the CC50 (cancer cell lines; HT29 cells, colon, 3 DAY) was 1.4 nM, the CC50 (cancer cell lines; HT29 cells, colon, 7 DAY) was 1.1 nM and the CC50 (cancer cell lines; HT1080 cells, sarcoma, 3 DAY) was 1 nM. For the same compound, the CC50 (cancer cell lines; HT1080 cells, sarcoma, 7 DAY) was 0.6 nM, the CC50 (cancer cell lines; KM12 cells, colon, 3 DAY) was 0.9 nM and the CC50 (cancer cell lines; KM12 cells, colon, 7 DAY) was 0.4 nM. It also gave a CC50 (cancer cell lines; MDA-MB-231 cells, breast, 3 DAY) of 10 nM, a CC50 (cancer cell lines; MDA-MB-231 cells, breast, 7 DAY) of 7.5 nM and a CC50 (cancer cell lines; MIA PaCa-2 cells, pancreatic, 3 DAY) of 1.8 nM. For the same compound, the CC50 (cancer cell lines; MIA PaCa-2 cells, pancreatic, 7 DAY) was 0.4 nM, the CC50 (cancer cell lines; NCI-H69 cells, SCLC, 3 DAY) was 1 nM and the CC50 (cancer cell lines; NCI-H82 cells, SCLC, 3 DAY) was 1.1 nM. It also gave a CC50 (cancer cell lines; NCI-H460 cells, NSCLC, 3 DAY) of 15.4 nM, a CC50 (cancer cell lines; NCI-H522 cells, NSCLC, 3 DAY) of 1 nM and a CC50 (cancer cell lines; NCI-H522 cells, NSCLC, 7 DAY) of 0.4 nM. The CC50 (cancer cell lines; NCI-H929 cells, myeloma, 3 DAY) was 2.5 nM, the CC50 (cancer cell lines; NCI-H1650 cells, NSCLC, 3 DAY) was 2.5 nM and the CC50 (cancer cell lines; NCI-N87 cells, gastric, 3 DAY) was 0.3 nM. The CC50 (cancer cell lines; NCI-N87 cells, gastric, 7 DAY) was 0.2 nM, the CC50 (cancer cell lines; OCI-Ly19 cells, lymphoma, 3 DAY) was 1.2 nM and the CC50 (cancer cell lines; OPM-2 cells, myeloma, 3 DAY) was 1.5 nM. It also gave a CC50 (cancer cell lines; OVCAR3 cells, ovarian, 3 DAY) of 1.1 nM, a CC50 (cancer cell lines; OVCAR3 cells, ovarian, 7 DAY) of 0.4 nM and a CC50 (cancer cell lines; SF-295 cells, glioma, 3 DAY) of 1.5 nM. It also gave a CC50 (cancer cell lines; SU-DHL-4 cells, lymphoma, 3 DAY) of 1.5 nM, a CC50 (cancer cell lines; SU-DHL-5 cells, lymphoma, 3 DAY) of 0.9 nM and a CC50 (cancer cell lines; U-87MG cells, glioma, 3 DAY) of 23 nM.
